For series [1], the target named is T1, Serine/threonine-protein kinase ATR (Homo sapiens, UniProt Q13535). Nature of the series: Inhibition of ATR in human HeLa S3 cells assessed as decrease in CHK1 phosphorylation at Ser345 residue pretreated for 20 mins followed by gemcitabine stimulation for 3.5 to 4 hrs by AlphaScreen SurFire assay. The series is classed as cell-based. (In general: Bead proximity is the source of the signal in Alpha formats.)

The nature of series [2]: Clearance in human liver microsomes at 1 uM in presence of NADPH by ESI/LC-MS/MS analysis. The class given is ADME, Microsome. Conditions: read-out: CLH. In general terms: Microsomes from liver hold many membrane-bound enzymes, among them those of drug oxidation.
A short description of series [3]: Clearance in human hepatocytes at 1 uM measured per million cells by ESI/LC-MS/MS analysis. Conditions: read-out: CLH. The class given is ADME, cell-based, Hepatocyte.
Series [4] in a line: Inhibition of human full length recombinant ATR M211T mutant using GST-c-Myc-p53 as substrate measured after 30 mins in presence of Mg/ATP mix by ELISA.
For series [5], the target named is Serine-protein kinase ATM (Homo sapiens, UniProt Q13315). Description: Inhibition of human full length recombinant ATM using GST-c-Myc-p53 as substrate measured after 30 mins in presence of Mg/ATP mix by ELISA.
For series [6], the target named is DNA-dependent protein kinase catalytic subunit (Homo sapiens, UniProt P78527). Nature of the series: Inhibition of human full length recombinant DNA-PK using GST-c-Myc-p53 as substrate measured after 30 mins in presence of Mg/ATP mix by ELISA. (An ELISA detects its analyte on a solid surface through an enzyme-linked reagent.)
Series [7] deals with Serine/threonine-protein kinase mTOR (Homo sapiens, UniProt P42345). Description: Inhibition of human full length recombinant mTOR measured after 40 mins in presence of [gamma-33P]ATP by radiometric scintillation counting analysis.
Series [8] deals with ATR/ATRIP (Homo sapiens, UniProt Q13535). Nature of the series: Inhibition of human ATR/ATRIP using GST-tagged p53 as substrate in presence of 3 uM ATP by AlphaScreen assay. The series is classed as protein-complex assay.
The species named for series [9] is Homo sapiens. Nature of the series: Selectivity ratio of IC50 for inhibition of mTOR in human HeLa S3 cells to IC50 for inhibition of ATR in human HeLa S3 cells. The series is classed as cell-based. Conditions: time 1.0 hrs.
Series [10] is described as follows: Apparent permeability of the compound in human Caco-2 cells at 10 uM measured for 90 mins by LC-MS/MS analysis. The series is classed as ADME, cell-based.
Series [11] can be described thus: Efflux ratio of apparent permeability in human Caco-2 cells at 10 uM measured for 90 mins by LC-MS/MS analysis. The class given is ADME, cell-based.
Series [12] is described as follows: Oral bioavailability in Sprague-Dawley rat at 2.5 to 5 mg/kg formulated as a solution in 5% NMP:95% (10% VitE TPGS in water) measured for 24 hrs by reverse phase liquid chromatography coupled to mass spectrometry. Conditions: in vivo, dose 2.5-5 mg/kg. The series is classed as ADME, organism-based.
Series [13] in a line: Clearance in Sprague-Dawley rat at 1 mg/kg, iv formulated as a solution in 10% PG:18% PEG400 in water or 5% NMP:95% (10% VitE TPGS in water) measured for 24 hrs by reverse phase liquid chromatography coupled to mass spectrometry. The class given is ADME, organism-based. Conditions: in vivo.
For series [14], the system named is LoVo. Nature of the series: Cytotoxicity against human LoVo cells assessed as reduction in cell viability incubated for 5 days by CellTiter-Glo assay. The class given is functional, cell-based. Conditions: 120 h.
The subject of series [15] is Granta-519. Nature of the series: Antitumor activity against human Granta-519 cells xenografted in NOD-SCID mouse assessed as decrease in tumor volume at 50 mg/kg, po bid for 3 days and measured at 4 days after drug treatment cessation. Conditions: time 3.0 day. The class given is functional, organism-based.
Series [16] can be described thus: Toxicity in NOD-SCID mouse xenografted with human Granta-519 cells assessed as reduction in red blood cells at 50 mg/kg, po bid for 3 days and 4 days off treatment and measured on day 14. The class given is organism-based. Conditions: in vivo, 72 h, time 3 day.
Series [17] is described as follows: Toxicity in NOD-SCID mouse xenografted with human Granta-519 cells assessed as early stage erythroblasts at 30 mg/kg, po bid for 3 days and measured at 4 days after treatment discontinuation by flow cytometry. The class given is organism-based. Conditions: in vivo, 72 h, time 3 day.
A short description of series [18]: Toxicity in NOD-SCID mouse xenografted with human Granta-519 cells assessed as late stage erythroblasts at 30 mg/kg, po bid for 3 days and measured at 4 days after treatment discontinuation by flow cytometry. The class given is organism-based. Conditions: in vivo, 72 h, time 3 day.
The target in series [19] is T1, Serine/threonine-protein kinase ATR. Nature of the series: Inhibition of ATR (unknown origin) by Morrison equation based analysis.
In series [20] the target is Dual specificity tyrosine-phosphorylation-regulated kinase 1A (Homo sapiens) (UniProt Q13627). Description: Inhibition of DYRK1A in human Jurkat cell lysates at 0.03 to 0.3 uM in presence of biotinylated ADP by KiNativ profiling based mass spectrometry. The class given is subcellular. Conditions: dose 0.03-0.3 µM.
Series [21] addresses Glycogen synthase kinase-3 alpha (Homo sapiens) (UniProt P49840). Nature of the series: Inhibition of GSK3A in human Jurkat cell lysates at 0.03 to 0.3 uM in presence of biotinylated ADP by KiNativ profiling based mass spectrometry. The class given is subcellular. Conditions: dose 0.03-0.3 µM.
Series [22] deals with Glycogen synthase kinase-3 beta (Homo sapiens) (UniProt P49841). Nature of the series: Inhibition of GSK3B in human Jurkat cell lysates at 0.03 to 0.3 uM in presence of biotinylated ADP by KiNativ profiling based mass spectrometry. Conditions: dose 0.03-0.3 µM. The class given is subcellular.
In series [23] the target is T1, Serine/threonine-protein kinase ATR. Nature of the series: Inhibition of ATR in gemcitabine-stimulated human LoVo cells assessed as decrease in CHK1 phosphorylation at Ser345 residue. The series is classed as cell-based.
Series [24] is filed under the species Homo sapiens. Nature of the series: Selectivity ratio of IC50 for inhibition of mTOR in human LoVo cells using pP70S6K (Thr389) as substrate to IC50 for inhibition of ATR in gemcitabine-stimulated human LoVo cells using CHK1 (Ser345) as substrate. The series is classed as cell-based.

Calls of active or inactive are those of the source. No cut-off for these calls is given here.

T1 sequence (Q13535 whole entry): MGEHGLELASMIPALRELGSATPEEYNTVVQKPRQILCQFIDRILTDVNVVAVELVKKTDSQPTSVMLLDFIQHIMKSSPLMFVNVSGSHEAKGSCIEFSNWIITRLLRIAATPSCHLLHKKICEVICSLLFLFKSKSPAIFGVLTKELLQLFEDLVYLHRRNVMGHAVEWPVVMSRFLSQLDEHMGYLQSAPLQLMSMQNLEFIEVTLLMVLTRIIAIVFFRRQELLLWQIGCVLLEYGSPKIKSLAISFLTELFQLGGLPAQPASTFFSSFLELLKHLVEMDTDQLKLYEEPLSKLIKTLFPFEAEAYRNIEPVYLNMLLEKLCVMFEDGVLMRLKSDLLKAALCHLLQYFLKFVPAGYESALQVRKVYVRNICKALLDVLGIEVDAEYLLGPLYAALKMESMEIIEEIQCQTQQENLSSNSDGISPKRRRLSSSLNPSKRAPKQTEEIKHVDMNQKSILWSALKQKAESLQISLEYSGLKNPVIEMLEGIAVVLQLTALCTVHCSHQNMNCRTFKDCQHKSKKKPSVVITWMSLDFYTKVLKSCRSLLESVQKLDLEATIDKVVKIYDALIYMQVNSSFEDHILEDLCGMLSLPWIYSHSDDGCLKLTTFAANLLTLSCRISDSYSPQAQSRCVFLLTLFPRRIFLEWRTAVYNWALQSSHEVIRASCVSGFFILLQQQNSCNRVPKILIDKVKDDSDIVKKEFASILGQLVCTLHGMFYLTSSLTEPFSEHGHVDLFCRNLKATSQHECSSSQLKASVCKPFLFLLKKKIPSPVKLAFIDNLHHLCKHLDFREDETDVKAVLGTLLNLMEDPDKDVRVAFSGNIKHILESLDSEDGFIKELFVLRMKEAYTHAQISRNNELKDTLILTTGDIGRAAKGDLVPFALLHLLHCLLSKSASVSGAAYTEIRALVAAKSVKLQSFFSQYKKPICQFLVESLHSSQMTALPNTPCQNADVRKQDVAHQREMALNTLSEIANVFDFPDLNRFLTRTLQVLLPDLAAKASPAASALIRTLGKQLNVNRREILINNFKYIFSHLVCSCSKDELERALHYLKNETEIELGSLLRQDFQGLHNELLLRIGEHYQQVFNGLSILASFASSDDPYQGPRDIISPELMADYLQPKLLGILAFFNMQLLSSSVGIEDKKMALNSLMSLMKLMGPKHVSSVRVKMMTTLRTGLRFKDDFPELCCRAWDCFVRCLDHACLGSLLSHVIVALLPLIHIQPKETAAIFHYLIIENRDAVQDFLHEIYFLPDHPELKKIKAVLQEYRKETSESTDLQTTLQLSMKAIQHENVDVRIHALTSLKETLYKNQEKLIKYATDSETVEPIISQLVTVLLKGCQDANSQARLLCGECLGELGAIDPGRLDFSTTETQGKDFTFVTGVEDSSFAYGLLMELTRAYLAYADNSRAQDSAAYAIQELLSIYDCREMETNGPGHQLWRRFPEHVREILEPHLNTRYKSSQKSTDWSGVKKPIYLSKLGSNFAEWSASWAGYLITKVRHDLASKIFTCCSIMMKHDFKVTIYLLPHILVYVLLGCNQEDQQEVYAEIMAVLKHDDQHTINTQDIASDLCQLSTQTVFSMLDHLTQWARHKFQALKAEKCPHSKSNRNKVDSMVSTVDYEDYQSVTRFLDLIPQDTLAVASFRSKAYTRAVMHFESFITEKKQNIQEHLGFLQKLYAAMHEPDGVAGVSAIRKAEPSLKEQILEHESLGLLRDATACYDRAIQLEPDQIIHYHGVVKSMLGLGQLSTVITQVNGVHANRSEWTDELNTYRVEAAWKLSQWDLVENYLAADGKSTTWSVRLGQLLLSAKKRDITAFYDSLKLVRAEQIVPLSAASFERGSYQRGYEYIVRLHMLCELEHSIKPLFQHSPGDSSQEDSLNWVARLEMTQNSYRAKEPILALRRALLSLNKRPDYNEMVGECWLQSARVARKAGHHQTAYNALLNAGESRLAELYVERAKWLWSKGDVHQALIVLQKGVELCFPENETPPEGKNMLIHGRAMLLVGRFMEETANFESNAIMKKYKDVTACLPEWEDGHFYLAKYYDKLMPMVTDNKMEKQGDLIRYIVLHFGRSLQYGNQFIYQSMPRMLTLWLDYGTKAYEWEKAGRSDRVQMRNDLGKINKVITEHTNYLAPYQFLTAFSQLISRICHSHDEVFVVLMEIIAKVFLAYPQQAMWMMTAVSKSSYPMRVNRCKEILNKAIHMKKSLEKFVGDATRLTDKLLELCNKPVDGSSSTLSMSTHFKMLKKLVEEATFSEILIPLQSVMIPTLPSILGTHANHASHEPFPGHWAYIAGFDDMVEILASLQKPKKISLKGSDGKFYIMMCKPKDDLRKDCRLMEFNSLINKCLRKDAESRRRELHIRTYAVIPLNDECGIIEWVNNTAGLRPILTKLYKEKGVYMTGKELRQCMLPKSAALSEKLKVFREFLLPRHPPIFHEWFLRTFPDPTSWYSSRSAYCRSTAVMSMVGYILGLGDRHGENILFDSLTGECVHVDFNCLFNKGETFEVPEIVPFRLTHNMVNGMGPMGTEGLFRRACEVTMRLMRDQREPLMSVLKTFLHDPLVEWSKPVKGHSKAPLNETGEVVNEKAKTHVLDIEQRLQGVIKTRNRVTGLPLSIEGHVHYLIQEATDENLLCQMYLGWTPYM
Chain of ATR/ATRIP (Q13535 whole entry): as above
Chain of ATR/ATRIP (Q8WXE1 whole entry, further chain): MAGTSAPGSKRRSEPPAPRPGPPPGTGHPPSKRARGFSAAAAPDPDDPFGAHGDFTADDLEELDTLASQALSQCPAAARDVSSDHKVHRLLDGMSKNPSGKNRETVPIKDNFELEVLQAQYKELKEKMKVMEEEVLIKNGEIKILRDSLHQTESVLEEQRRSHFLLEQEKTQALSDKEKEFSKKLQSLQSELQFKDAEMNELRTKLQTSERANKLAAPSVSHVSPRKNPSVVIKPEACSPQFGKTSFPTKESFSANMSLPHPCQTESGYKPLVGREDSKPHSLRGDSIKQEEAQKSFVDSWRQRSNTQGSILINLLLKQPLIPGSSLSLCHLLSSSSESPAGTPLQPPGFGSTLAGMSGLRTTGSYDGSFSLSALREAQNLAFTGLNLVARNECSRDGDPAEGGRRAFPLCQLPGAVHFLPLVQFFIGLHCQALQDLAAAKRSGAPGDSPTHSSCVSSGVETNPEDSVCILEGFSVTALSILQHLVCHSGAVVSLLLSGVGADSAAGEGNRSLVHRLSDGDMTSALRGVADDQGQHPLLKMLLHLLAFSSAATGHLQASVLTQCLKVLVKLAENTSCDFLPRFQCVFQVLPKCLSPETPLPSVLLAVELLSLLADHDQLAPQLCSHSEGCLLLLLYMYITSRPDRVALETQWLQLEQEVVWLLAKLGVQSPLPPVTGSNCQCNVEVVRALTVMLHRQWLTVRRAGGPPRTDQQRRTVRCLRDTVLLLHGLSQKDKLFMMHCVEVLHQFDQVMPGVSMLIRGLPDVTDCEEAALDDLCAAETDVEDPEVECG
Chain of Glycogen synthase kinase-3 beta (Homo sapiens) (P49841 whole entry, looked up): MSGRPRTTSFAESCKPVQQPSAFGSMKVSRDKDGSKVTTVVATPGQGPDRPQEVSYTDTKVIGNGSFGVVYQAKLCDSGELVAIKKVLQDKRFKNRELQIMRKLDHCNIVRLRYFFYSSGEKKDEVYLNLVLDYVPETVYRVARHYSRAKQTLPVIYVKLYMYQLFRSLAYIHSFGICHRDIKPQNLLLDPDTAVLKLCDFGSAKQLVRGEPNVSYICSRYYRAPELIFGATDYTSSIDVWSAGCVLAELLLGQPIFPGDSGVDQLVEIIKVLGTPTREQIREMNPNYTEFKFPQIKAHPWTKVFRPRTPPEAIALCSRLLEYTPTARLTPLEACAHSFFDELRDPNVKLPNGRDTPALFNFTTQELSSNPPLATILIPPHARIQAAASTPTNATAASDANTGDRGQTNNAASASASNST
Chain of Glycogen synthase kinase-3 alpha (Homo sapiens) (P49840 2-483 limits assumed): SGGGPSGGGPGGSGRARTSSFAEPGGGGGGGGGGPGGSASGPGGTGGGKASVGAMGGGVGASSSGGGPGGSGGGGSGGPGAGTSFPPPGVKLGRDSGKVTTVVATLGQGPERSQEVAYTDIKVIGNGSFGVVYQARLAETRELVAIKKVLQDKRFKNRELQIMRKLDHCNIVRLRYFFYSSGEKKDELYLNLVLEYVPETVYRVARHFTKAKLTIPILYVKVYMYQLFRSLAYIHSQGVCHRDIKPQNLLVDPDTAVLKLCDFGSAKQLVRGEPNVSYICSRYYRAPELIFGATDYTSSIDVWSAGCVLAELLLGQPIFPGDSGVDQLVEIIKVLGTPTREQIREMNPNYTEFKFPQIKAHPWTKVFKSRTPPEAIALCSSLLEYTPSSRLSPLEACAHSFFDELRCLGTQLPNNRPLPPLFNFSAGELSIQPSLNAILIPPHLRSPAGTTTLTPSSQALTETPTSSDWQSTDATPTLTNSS

The IC50 is the midpoint of a concentration-inhibition curve. As to `C[C@@H]1COCCN1c1cc(I)c2cnn(-c3ccn[nH]3)c2n1`, the IC50 in [1] came out at 0.007 µM. Also, the microsomal CLint at 1 µM in series [2] worked out at 23 µL/min/mg.
In the case of `C[C@@H]1COCCN1c1cc(C2(S(C)(=O)=O)CC2)nc(Nc2cn[nH]c2)n1`, the IC50 in [1] was over 10 µM.
`C[C@@H]1COCCN1c1cc(C2(S(C)(=O)=O)CC2)c2ccn(-c3cc[nH]n3)c2n1`: in series [3], the hepatocyte CLint at 1 µM was under 2.9 µL/min/1e6 cells. For the same compound, the microsomal CLint at 1 µM in series [2] was under 11.8 µL/min/mg.
With `CNCc1ccc(-c2cc(-c3nc(-c4ccc(S(=O)(=O)C(C)C)cc4)cnc3N)on2)cc1` [BERZOSERTIB], the 50% inhibitory concentration (IC50) was 0.005 µM in series [4], 0.085 µM in series [5], 3.6 µM in series [6] and 4.8 µM in series [7].
On to `C[C@@H]1COCCN1c1cc(C2(S(C)(=O)=O)CC2)nc(S(=O)(=O)c2cc[nH]n2)n1`, for which the values for the half-inhibitory concentration (IC50) in series [8] and in series [1] were 0.16 µM and over 10 µM, respectively.
For `C[C@@H]1COCCN1c1cc(C2(S(C)(=O)=O)CC2)nc(Cc2cc[nH]n2)n1`, in that order: over 0.7 µM and over 10 µM.
In general, Papp refers to the rate of passage across a membrane or cell layer, normalised by area and donor concentration. What is called efflux ratio is the permeability from basolateral to apical divided by that in the opposite direction, in the common usage. For orientation: bioavailability means dose-corrected exposure relative to a reference, in per cent. Low readings indicate little systemic uptake, high ones much systemic uptake. One may read the clearance as a measure of how efficiently the substance is removed, as volume per time. A high value points to efficient removal. `C[C@@H]1COCCN1c1cc(C(C)(C)C#N)c2cnn(-c3cc[nH]n3)c2n1`: the IC50 in series [1] was determined as 0.0008 µM. Also, the Ratio IC50 in series [9] is 6.6. Besides, the microsomal CLint at 1 µM in [2] was under 11.6 µL/min/mg. Also, the Papp at […], 10 µM in series [10] was found to be 170 nm/s. For the same compound, the efflux ratio at […], 10 µM in [11] was found to be 0.9. In series [12], the bioavailability amounted to 56%. In series [13], this compound returned a clearance of 0.9 L/h/kg.
In the case of `C[C@@H]1COCCN1c1cc(C(C)(C)C(N)=O)c2cnn(-c3cc[nH]n3)c2n1`, the half-inhibitory concentration (IC50) in [1] was determined as 0.009 µM.
For the compound `Cc1c[nH]nc1Nc1nc(N2CCOC[C@H]2C)cc(C2(S(C)(=O)=O)CC2)n1`, the half-inhibitory concentration (IC50) is over 1 µM in [8] and over 10 µM in series [1].
Regarding `C[C@@H]1COCCN1c1cc(-c2ccccc2C(N)=O)c2cnn(-c3ccn[nH]3)c2n1`, in series [2], the microsomal CLint at 1 µM was under 11.6 µL/min/mg. The compound also gave a bioavailability in [12] of 2%. In [13], this compound showed a clearance of 2.7 L/h/kg.
Consider `C[C@@H]1COCCN1c1cc(C2(O)CCC(F)(F)CC2)c2cnn(-c3cc[nH]n3)c2n1`, for which the microsomal CLint at 1 µM in series [2] was under 11.6 µL/min/mg.
For the compound `C[C@@H]1COCCN1c1ccc2cnn(-c3cc[nH]n3)c2n1`, the half-maximal inhibitory concentration (IC50) in series [1] was determined as 0.06 µM. The Ratio IC50 in series [9] stood at 4.
For the compound `C[C@@H]1COCCN1c1cc(-c2ccnn2C)c2ccnc(-c3ccn[nH]3)c2n1` [ELIMUSERTIB], in series [14], the half-inhibitory concentration (IC50) turned out to be 0.027 µM. The result in [15] was Active. For the same compound, the Activity entry in series [16] is on record as “Toxic”; in series [17], “Non-Toxic”; in series [18], “Non-Toxic”.
Take `C[C@@H]1COCCN1c1cc(C2(S(C)(=O)=O)CC2)nc(-c2cccc3[nH]ccc23)n1`: the concentration for half-maximal inhibition (IC50) in series [4] came to 0.01 µM.
For `C[C@@H]1COCCN1c1cc(C(C)(C)O)c2cnn(-c3cc[nH]n3)c2n1`, in series [1], the half-maximal inhibitory concentration (IC50) came out at 0.021 µM.
As to `Cc1cc2c(C3(S(C)(=O)=O)CC3)cc(N3CCOC[C@H]3C)nc2n1-c1cc[nH]n1`, the IC50 in series [8] is over 1 µM.
`C[C@@H]1COCCN1c1cc(C2(S(C)(=O)=O)CC2)nc(N(C)c2cc[nH]n2)n1`: in series [8], the IC50 was over 1 µM.
`C[C@@H]1COCCN1c1cc(C2([S@](C)(=N)=O)CC2)nc(-c2cc[nH]c3nccc2-3)n1` [CERALASERTIB]: the figures for the half-inhibitory concentration (IC50) in series [4] and in series [14] were 0.134 µM and 0.377 µM, respectively.
Consider `C[C@@H]1COCCN1c1cc(I)c2cnn(-c3cc[nH]n3)c2n1`, for which, in series [9], the Ratio IC50 stood at 1.6.
Broadly, the Ki is a measure of affinity in units of concentration, obtained from inhibition or displacement. Low values mean higher affinity, high ones lower affinity. `Nc1nn2cc(F)cnc2c1C(=O)Nc1cncc(F)c1N1CCC(C(=O)N2CCN(C3COC3)CC2)CC1` [M4344]: the half-maximal inhibitory concentration (IC50) is 0.16 µM in series [8], 0.005 µM in series [1] and 0.0011 µM in [23]. The affinity in series [19], expressed as Ki, was 0.0029 µM. The Ratio IC50 was determined as 27 in series [9] and 63 in [24]. The inhibition result in series [20], in series [21] and in [22] was “Active” throughout.

These data come from ChEMBL document CHEMBL5505970 (J Med Chem, 2024).
